Legend:
Eμ-myc/p53^−/− lymphoma = assay: White blood cell counts of lymphoma-associated leukemia after treatment; format: in vivo; details: Eμ-myc/p53^−/− mouse, 10 mg/kg, 0-24 hours after treatment, FIG. 6, one mouse
Procedure: Eμ-myc/p53^+ mice (C57BL/6) and Eμ-myc/p53^−/− (C57BL/6 x 129; p53^−/LOH in FIGS. 6 and 7) with leukemia associated with primary lymphoma, were treated with either adriamycin at 10 mg/kg of body weight or with 6 Gy of whole body gamma-irradiation. Blood samples were taken and white blood cells were counted in a hemocytometer at 0, 4, 8, 12 and 24 hours after treatment. […] The data plotted in FIGS. 6 and 7 are from one treated mouse of each genotype.

[1] = system: transplanted L1537 cells (homozygous for p53^−); assay: Drug sensitivity of transplanted tumor cell line L1537; format: in vivo, mouse; details: two C57BL/6 mice, 10 mg/kg
Procedure: (§1) Eμ-myc lymphomas were cultured using feeder layers (see Example 7). Several of these cell lines were transplanted into syngeneic C57BL/6 recipients by injection of 10^6 cells into the tail vein. Tumor-bearing animals were assessed for response to 10 mg/kg adriamycin therapy, by palpation for tumors.
Tumor cell line L1537 was derived from an Eμ-myc/p53^+/− lymphoma and was tested as homozygous for p53^−. Tumor cells were transplanted, by the method described above, into two C57BL/6 mice.

[2] = system: Eμ-myc lymphomas from p53^+/− mice; assay: Effect of p53 defect on therapy in Eμ-myc/p53^+/− mice; format: in vivo, mouse; details: 10 Eμ-myc/p53^+/− mice, 10 mg/kg, FIG. 14
Procedure: Since most Eμ-myc lymphomas from p53^+/− mice lose the wild-type p53 allele, it was possible to study the response of essentially p53-deficient tumors in mice that were otherwise hemizygous for p53 and not prone to thymic lymphoma (see strategy in FIG. 13). […] The response of Eμ-myc lymphomas with p53 defects to 10 mg/kg adriamycin therapy resembled that of Eμ-myc/p53^+/+ lymphomas following their second relapse (See FIG. 4).

[3] = system: Eμ-myc lymphoma cell line L1025; assay: In vitro sensitivity of lymphoma cell lines, viability by trypan blue exclusion; format: cell-based, mouse; details: line L1025 from a resistant tumor, 24-hour treatment, FIG. 8
Procedure: Several lymphoma lines have been isolated from Eμ-myc mice in which the response to adriamycin of the original tumor was known. Eμ-myc lymphoma cell lines cultured in vitro were tested for their sensitivity to adriamycin. Lymphocytes were counted. The cells were spun down and resuspended in pre-conditioned B cell media (media that has been on feeder cells for 24 hours) at a concentration of 2×10^6 cells/ml. 10^6 cells were seeded per well of a tissue culture plate, in 0.5 ml. Adriamycin was suspended in pre-conditioned B cell media at twice the final concentration. Final concentrations of adriamycin were 0.25, 0.05, 0.075, 0.1, 0.5 and 1.0 μg/ml. 0.5 of medium was added to each well, to a final volume of 1 ml. Cells were incubated for 24 hours at 37° C. Cells were transferred from the wells to Eppendorf tubes on ice, and centrifuged at 2500 rpm for 5 minutes at 4° C. The medium was poured off the cell pellets, leaving about 200 μl of medium in each tube. One drop of trypan blue dye was added to each tube, and a total of 200 cells per sample were counted under a microscope. Live cells exclude trypan blue and appear white; dead cells take up trypan blue and appear blue.
L877 has been tested as Eμ-myc/p53^−/−; the other cell lines are derived from Eμ-myc/p53^+ mice and are presumably p53^+/+.

[4] = system: primary myc-induced lymphomas in Eμ-myc transgenic mice; assay: Response to therapy of primary myc-induced lymphomas (remission/relapse by palpation and blood smears); format: in vivo, mouse; details: single treatment 10 mg/kg intraperitoneal, FIG. 4
Procedure: Eμ-myc transgenic mice were treated with 10 mg/kg body weight adriamycin (maximum tolerated dose) by intraperitoneal injection using adriamycin freshly resuspended in water to a final concentration of 1 mg/ml. Treated mice were monitored for remission and for relapse by palpation and by blood smears to obtain white blood cell counts.
Palpation is performed by gently feeling the mouse for bumps under the skin, which are enlarged lymph nodes.
Blood smears are done by collecting blood from the tail artery, and examining a dried droplet of blood which has been smeared on a glass microscope slide to be one cell layer thick at the edge. The blood smear is stained after drying, using LEUKOSTAT™ stain (Fisher Diagnostics cat. # CS43A-C). The blood smear can be mounted with Permount™ histological mounting medium (Fisher Scientific). Slides are viewed under 40X or oil emersion. Blood from mice affected by lymphoma are always compared with blood from mice from a normal mouse drawn at the same time.
The numbers of mice used to generate the data in FIG. 4 were 22 (first treatment), 14 (second treatment) and 5 (third treatment).

[5] = system: secondary tumors arising from transplanted L885 cells; assay: Drug sensitivity of transplanted tumor cell line L885, by palpation; format: in vivo, mouse; details: 10 mg/kg, 9 secondary tumors vs 22 primary tumors, FIG. 11
Procedure: as §1

[6] = system: L700 cell line derived from an Eμ-myc (p53^+) tumor; assay: Detection of caspase activation (biotin-YVAD-amk labelling, blot); format: cell-based, mouse; details: 0.1 μg/ml, 0, 3, 6 or 9 hours, FIG. 10
Procedure: Procedures were as published in Faleiro, L., et al., EMBO J. 16:2271-2281, 1997). Isolated L700 cells growing in culture dishes were treated with 0.1 μg/ml adriamycin. After 0, 3, 6 or 9 hours, cell lysates were made in the presence of 10 μM biotin-YVAD-amk to label caspases, and the protein concentrations were determined. Protein samples were run on a 15% acrylamide-0.1% SDS gel. Proteins were transferred from the gel to Immobilon P membrane (Millipore). Membranes were washed in methanol and air dried. Dried, baked membranes were incubated in biotinylated horseradish peroxidase at 25 ng/ml. Labeled proteins were visualized with ECL reagent (Amersham).

[7] = system: transplanted Eμ-myc lymphoma cells in C57BL/6 mice; assay: Tumor transplantation into syngeneic mice, response to treatment by palpation; format: in vivo, mouse; details: 10^6 cells by tail vein into C57BL/6, 10 mg/kg, compared with primary tumors, FIG. 5
Source text: Upon discovery of tumors in a Eμ-myc transgenic mouse, lymphoma cells were harvested, and 10^6 cells were immediately transplanted into multiple C57BL/6 mice (Taconic Laboratories) by tail vein injection. Tumors were allowed to form (usually in about two weeks). Treatment with adriamycin was given as in Example 5. […] The results (as assessed by palpation for tumors) plotted in FIG. 5 are from 22 mice with primary tumors, and 10 mice with transplanted tumors.

For `COc1cccc2c1C(=O)c1c(O)c3c(c(O)c1C2=O)C[C@@](O)(C(=O)CO)C[C@@H]3O[C@H]1C[C@H](N)[C@H](O)[C@H](C)O1` [adriamycin], the “sensitivity of lymphoma-associated leukemia (white blood cell counts)” value (Eμ-myc/p53^−/− lymphoma) was “insensitive”, the “response of transplanted L1537 tumors to therapy” value [1] was “Both mice failed to respond” and the “response to therapy (percentage of tumor-free mice)” value [2] was “almost completely refractory to therapy”. For the same compound, the “sensitivity in cell culture (percent viable cells)” value [3] was “sensitive in cell culture”, the “response to therapy (time to relapse by palpation)” value [4] was “the vast majority of the mice respond to therapy” and the “response of transplanted L885 tumors to therapy” value [5] was “virtually indistinguishable from that seen in the primary, non-transplanted lymphomas”. For the same compound, the caspase activation [6] was “caspase activation following drug treatment” and the “response of transplanted (secondary) tumors to treatment” value [7] was “A higher percentage of these secondary tumors failed to respond to treatment”.
